Values of other authors, collected in patent US11925768B2, “Method for decolonizing mammalian skin” (AVADIM HEALTH IP, INC., priority 2014, dated 2024).

Settings: concentrations as low as

In the case of `O=S1(=O)CCN(CN2CCS(=O)(=O)NC2)CN1` [Taurolidine, taurolidine], the “concentration producing intense pain in most tissues” value is given as “about 10 mg/ml”.
